How the values were obtained:
rat peritoneum = assay: Intra-peritoneal PDF containing MGO in rats (peritoneal injury); type: in vivo, Sprague-Dawley (SD) rats; settings: n=6
Protocol: All animal experiments were performed following the guidelines of the Institutional Committee for Animal Experimentation of Taipei Veterans General Hospital. Five week-old male Sprague-Dawley (SD) rats were purchased from the Laboratory Animal Center of National Yang-Ming University. Peritoneal dialysis fluid (PDF) was prepared according to Hirahara et al. [10;22], containing 2.5% glucose, 100 mmol/L NaCl, 35 mmol/L sodium lactate, 2 mmol/L CaCl2, and 0.7 mmol/L MgCl2, in a pH of 5.0. To test MGO effects, fifty mL/kg of PDF containing 0, 3, 6, 12 mM MGO (Sigma, St. Louis, Mo., USA) were injected intra-peritoneally for ten consecutive days. Dimethyl sulfoxide (DMSO) (Sigma, St. Louis, Mo., USA) was used as the solvent of MGO. […]
Certain sections of rat peritoneal tissues were frozen at −80° C. for immunofluorescent analysis, while the remainder were fixed in a neutral formalin solution and then embedded in paraffin for histological analysis. […] For peritoneal thickness quantification, parietal peritoneum sized 1.0×0.5 cm were sampled from four separate peritoneal sites of each rat, including right ventral, left ventral, right lateral, and left lateral abdomen. For each sampling site, the peritoneal thickness was averaged from 15 evenly measured points. […] The number of mesothelial cells was determined by morphometric method. […]

[1] = test system: CB1R and CB2R expression in MeT-5A cells; assay: PCR assessment of CB1R and CB2R expression after TGF-β1 treatment; type: cell-based, human; settings: exogenous TGF-β1, RT-PCR
Protocol: (§1) The MeT-5A human mesothelial cell line, obtained from the American Type Culture Collection (ATCC, Manassas, Va., USA), was cultured in DMEM (Biological Industries, Israel) containing 15% fetal bovine serum (Thermo Scientific, Waltham, Mass., USA), and 1% penicillin/streptomycin/L-glutamine (Biological Industries, Israel). The primary culture of human peritoneal mesothelial cells (HPMC) were prepared as previously described. All patient materials were processed following the ethics regulations of the Institutional Review Board of Taipei Veterans General Hospital.
(§2) For mRNA expression analysis of peritoneal tissue TGF-β1, VEGF, and Snail, the rat peritoneum was resected and incubated with trypsin at 37° C. for 30 minutes. The mesothelium was then scratched from peritoneal surface and collected for reverse transcription-polymerase chain reaction (RT-PCR). In the mesothelial cell culture, the mRNA expression of CB1R, CB2R, and type I collagen were also assessed by the PCR analysis. Total RNA was extracted with TRIzol (Invitrogen, Carlsbad, Calif., USA). Contaminated genomic DNA was removed with RNAse-free DNAse (Ambion, Austin, Tex., USA) following the manufacturer's protocol. First-strand cDNA was synthesized from total RNA with Superscript™ first-strand cDNA synthesis system for RT-PCR (Invitrogen, Carlsbad, Calif., USA) using Oligo(dT) as primers. GAPDH was used as control. […]

[2] = test system: TGF-β1, VEGF, and Snail mRNA in rat peritoneal tissue; assay: RT-PCR of rat peritoneal tissue after MGO treatment; type: in vivo, Sprague-Dawley (SD) rats; settings: representative PCR
Protocol: (§3) All animal experiments were performed following the guidelines of the Institutional Committee for Animal Experimentation of Taipei Veterans General Hospital. Five week-old male Sprague-Dawley (SD) rats were purchased from the Laboratory Animal Center of National Yang-Ming University. Peritoneal dialysis fluid (PDF) was prepared according to Hirahara et al. [10;22], containing 2.5% glucose, 100 mmol/L NaCl, 35 mmol/L sodium lactate, 2 mmol/L CaCl2, and 0.7 mmol/L MgCl2, in a pH of 5.0. To test MGO effects, fifty mL/kg of PDF containing 0, 3, 6, 12 mM MGO (Sigma, St. Louis, Mo., USA) were injected intra-peritoneally for ten consecutive days. Dimethyl sulfoxide (DMSO) (Sigma, St. Louis, Mo., USA) was used as the solvent of MGO. For investigation of the effects of CBR ligands, SD rats were pretreated with PDF containing either a selective CB1R antagonist, AM281 (Alexis Biochemicals, Enzo Life Sciences, Farmingdale, N.Y., USA) (1 mg/kg/day) or a selective CB2R agonist, AM1241 (Sigma, St. Louis, Mo., USA) (1 mg/kg/day) for 3 days followed by continuous treatment of PDF containing respective CBR ligands (AM281 or AM1241) and 6 mM MGO for 10 days. Animals receiving PDF containing DMSO vehicle (without MGO) were used as control (n=6/group). All animals were euthanized at the end of experiments by exsanguinations under general anesthesia.
as §2, with “protocol.” for “protocol. First-strand cDNA was synthesized from total RNA with Superscript™ first-strand cDNA synthesis system for RT-PCR (Invitrogen, Carlsbad, Calif., USA) using Oligo(dT) as primers. GAPDH was used as control.”

[3] = test system: MeT-5A human mesothelial cell line; assay: TGF-β1-treated MeT-5A mesothelial cells: morphology, immunofluorescent staining; type: cell-based
Protocol: as §1
(§4) To assess the effects of CB1R antagonist on mesothelial cells, we pretreated the MeT-5A cells and RPMC with 5 μM of AM281 for 1 hour, and followed by simultaneous AM281 and TGF-β1 (R&D systems, Minneapolis, Minn., USA) treatment for 5 days. Various TGF-β1 concentrations (0.1 to 1.0 ng/mL) were used. In the CB2R experiment, AM1241 was used instead to test MeT-5A cells and HPMC.
For immunofluorescent studies, we grew mesothelial cells in slide flasks (Lab-Tek II; Nalge Nunc. Naperville, Ill., USA).
Cells were observed using a confocal LASER microscope (Leica, Wetzlar, Germany), and fluorescent intensity was analyzed using an image-processing software (AlphaEaseFC 4.0, Alpha Innotech, Santa Clara, Calif., USA). The cytoplasmic fluorescent intensity of individual cell is defined as integrated density value (IDV) of selected cytoplasmic area; the average fluorescent intensity of an image field is defined as average density value (ADV=total IDV/total cytoplasmic area).

[4] = test system: MGO-induced peritoneal fibrosis; assay: MGO-induced peritoneal fibrosis in rats, effects of CBR ligands (histology, morphometry); type: in vivo, Sprague-Dawley (SD) rats; settings: 1 mg/kg/day in PDF i.p., n=6; for MGO-induced peritoneal thickening: 3 days pretreatment then 10 days with 6 mM MGO, Masson's trichrome
Protocol: as §3
Certain sections of rat peritoneal tissues were frozen at −80° C. for immunofluorescent analysis, while the remainder were fixed in a neutral formalin solution and then embedded in paraffin for histological analysis. For immunofluorescent staining of CBR, rat brain and spleen were used as the positive control of CB1R and CB2R, respectively. For peritoneal thickness quantification, parietal peritoneum sized 1.0×0.5 cm were sampled from four separate peritoneal sites of each rat, including right ventral, left ventral, right lateral, and left lateral abdomen. For each sampling site, the peritoneal thickness was averaged from 15 evenly measured points. Tissue sections were stained with Masson's trichrome to quantify peritoneal fibrosis. The number of mesothelial cells was determined by morphometric method. The hematoxylin and eosin-stained sections were digitalized using an Aperio ScanScope slide scanner (Aperio, San Diego, Calif., USA) at its highest resolution. The mean mesothelial cells per mm surface of peritoneal membrane were counted from 15 points in each peritoneal tissue section from four separate peritoneal areas per animal. The peritoneal angiogenesis was quantified as described by Patel et al.. […] The mean vessels per mm peritoneal membrane were counted from 15 points in each peritoneal tissue section from four separate peritoneal areas per animal.

[5] = test system: rat peritoneal mesothelial cells (RPMC); assay: TGF-β1-treated rat peritoneal mesothelial cell (RPMC) culture: morphology; type: cell-based; settings: 5 μM, 1 hour pretreatment, then with TGF-β1 for 5 days
Protocol: The primary culture of rat peritoneal mesothelial cells (RPMC) were isolated from 5-week-old male SD rats. Trypsin-EDTA (Gibco, Grand Island, N.Y., USA) (1.25%; 100 mL/kg) was injected intra-peritoneally and was then aspirated after a 2-hour dwelling. The aspirate was centrifuged for 10 minutes at 1500 rpm, and was washed with phosphate buffered saline, and then cultured in DMEM containing 10% fetal bovine serum, and 1% penicillin/streptomycin/L-glutamine.
as §4

TGF-β1-activated PI3K = assay: Western blot of PI3K in MeT-5A cells; type: cell-based, human; settings: p110 catalytic subunit
Protocol: as §4
Phosphatidyl inositol 3 kinase (PI3K) activity in the MeT-5A cells was assessed by Western blot. Cell lysates were subjected to SDS-PAGE and probed with primary antibodies against the p110 catalytic subunit of PI3K (Upstate Millipore, Billerica, Mass., USA) or β-actin (Amersham Life Science, Buckinghamshire, UK).

[6] = humans, long-term basis; cited from earlier work
[7] = test system: human peritoneal mesothelial cells (HPMC); assay: PCR analysis of type I collagen in TGF-β1-treated HPMC; type: cell-based; settings: low TGF-β1 concentrations (0.01-0.05 ng/mL), differences not statistically significant
Protocol: as §1, §4
For mRNA expression analysis of peritoneal tissue TGF-β1, VEGF, and Snail, the rat peritoneum was resected and incubated with trypsin at 37° C. for 30 minutes. The mesothelium was then scratched from peritoneal surface and collected for reverse transcription-polymerase chain reaction (RT-PCR). In the mesothelial cell culture, the mRNA expression of CB1R, CB2R, and type I collagen were also assessed by the PCR analysis. […]

[8] = in the presence of TGF-β1, immunofluorescent staining

CC(=O)C=O [MGO, methylglyoxal]
peritoneal thickness (rat peritoneum; PDF containing 0, 3, 6, 12 mM MGO i.p. for ten consecutive days): significant increase | surface mesothelial cells (rat peritoneum; higher concentration of MGO (6-12 mM), i.p. ten days): prominent loss

TGF-β1: exogenous TGF-β1 (R&D systems) used to treat mesothelial cells
CBR levels (CB1R, CB2R mRNA) [1]: no significant effect

Cc1c(C(=O)NN2CCOCC2)nn(-c2ccc(Cl)cc2Cl)c1-c1ccc(I)cc1 [AM281, N-(morpholin-1-yl)-1-(2,4-dichlorophenyl)-5-(4-iodophenyl)-4-methyl-1H-pyrazole-3-carboxamide]
up-regulated Snail after MGO treatment [2]: attenuated | up-regulated TGF-β1 after MGO treatment [2]: attenuated | up-regulated VEGF after MGO treatment [2]: attenuated | TGF-β1-induced cell elongation ([3]; 5 μM, 1 hour pretreatment, then with TGF-β1 for 5 days): reduces | expression of E-cadherin [3, 8]: preserving | expression of cytokeratin 8/18 [3, 8]: preserving | type I collagen synthesis [3, 8]: inhibited | MGO-induced mesothelial cell detachment ([4]; 6 mM MGO 10 days): attenuated | MGO-induced angiogenesis ([4]; 6 mM MGO 10 days, α-SMA staining): attenuated | MGO-induced peritoneal thickening [4]: significantly attenuated | TGF-β1-induced cell elongation [5]: reduces | TGF-β1-activated PI3K (TGF-β1-activated PI3K): suppressed

C=C(C)[C@@H]1CCC(C)=C[C@H]1c1c(O)cc(CCCCC)cc1O [cannabidiol]
tolerability on long-term administration [6]: well-tolerated without adverse effects

CN1CCCCC1Cn1cc(C(=O)c2cc([N+](=O)[O-])ccc2I)c2ccccc21 (stereo not drawn) [AM1241, (2-iodo-5-nitrophenyl)-[1-[(1-methylpiperidin-2-yl)methyl]indol-3-yl]methanone]
MGO-induced peritoneal thickening [4]: significantly attenuated | type I collagen synthesis [7]: tended to suppress

— patent US20140142106A1, “METHOD FOR TREATING PERITONEAL FIBROSIS” (TAIPEI VETERANS GENERAL HOSPITAL, priority 2012, published 2014)
